Experimental data reported in the NIST ThermoML archive (doi:10.1016/j.fluid.2010.03.040).

Conditions: Capillary rise

COCCOC [1,2-dimethoxyethane]
Conditions | surface tension liquid-gas [mN/m]
278.17 K | 26.52
283.17 K | 25.97
288.18 K | 25.28
293.17 K | 24.67
298.03 K | 23.94
303.15 K | 23.42
308.12 K | 22.84
313.16 K | 22.25
318.17 K | 21.56
323.18 K | 21.02
328.17 K | 20.41
333.17 K | 19.83
338.17 K | 19.29
343.17 K | 18.74
348.17 K | 18.12
353.18 K | 17.59
358.17 K | 16.91
363.17 K | 16.35
368.17 K | 15.74
373.17 K | 15.23

CCOC(=O)OCC [diethyl carbonate]
Conditions | surface tension liquid-gas [mN/m]
273.18 K | 29.15
278.18 K | 28.63
283.18 K | 28.07
288.18 K | 27.48
293.16 K | 26.81
298.1 K | 26.26
303.17 K | 25.64
308.11 K | 25.14
313.19 K | 24.48
318.16 K | 24.03
323.16 K | 23.47
328.12 K | 22.98
333.18 K | 22.35
338.17 K | 21.81
343.17 K | 21.23
348.17 K | 20.69
353.19 K | 20.16
358.18 K | 19.64
363.16 K | 19.13
368.18 K | 18.69
373.17 K | 18.01

CCOC(=O)CCCCC(=O)OCC [diethyl hexanedioate]
Conditions | surface tension liquid-gas [mN/m]
293.16 K | 32.7
298.09 K | 32.2
303.17 K | 31.6
308.11 K | 31
313.18 K | 30.3
318.15 K | 29.7
323.17 K | 29.2
328.12 K | 28.7
333.16 K | 28.3
338.16 K | 27.7
343.15 K | 27.2
348.13 K | 26.6
353.16 K | 26.2
358.13 K | 25.8
363.13 K | 25.3
368.15 K | 24.8
373.14 K | 24.3
